In ChEMBL document CHEMBL1811818, “Arthrobotrisins A-C, oligosporons from the nematode-trapping fungus Arthrobotrys oligospora” (2011):
The source made the active and inactive calls. The calls are words filed in the database; no cut-off is given here.

What was measured:
Bacillus sp. [1] = assay: Antibacterial activity against Bacillus sp. 3.38 at 150 ug by agar diffusion assay; assay type: functional; details: Bacillus sp. (in: firmicutes), read-out: IZ
Bacillus sp. [2] = assay: Antibacterial activity against Bacillus sp. 3.38 at 300 ug by agar diffusion assay; assay type: functional; details: Bacillus sp. (in: firmicutes), read-out: IZ
Panagrellus redivivus = assay: Nematicidal activity against Panagrellus redivivus assessed as effect on larval development at 200 ug/mL after 48 hrs; assay type: functional, organism-based
Bacillus subtilis [3] = assay: Antibacterial activity against Bacillus subtilis 3.34 assessed as by agar diffusion assay; assay type: functional
Bacillus sp. [4] = assay: Antibacterial activity against Bacillus sp. 3.38 at 50 ug by agar diffusion assay; assay type: functional; details: Bacillus sp. (in: firmicutes), read-out: DIZ
Staphylococcus aureus = assay: Antibacterial activity against Staphylococcus aureus 3.17 at 50 ug by agar diffusion assay; assay type: functional; details: read-out: DIZ
Bacillus subtilis [5] = assay: Antibacterial activity against Bacillus subtilis 3.34 at 25 ug by agar diffusion assay; assay type: functional; details: read-out: IZ
Bacillus subtilis [6] = assay: Antibacterial activity against Bacillus subtilis 3.34 at 50 ug by agar diffusion assay; assay type: functional; details: read-out: IZ
Bacillus subtilis [7] = assay: Antibacterial activity against Bacillus subtilis 3.34 at 10 ug by agar diffusion assay; assay type: functional; details: read-out: DIZ

`CC(C)=CCC/C(C)=C/C[C@H](O)/C(C)=C/[C@H](O)[C@]12O[C@H]1[C@H](O)C(CO)=C[C@@H]2O` [ARTHROBOTRISIN B] was tested, and the zone of inhibition at 150 µg/disc (Bacillus sp. [1]) was 4.7 mm, the zone of inhibition at 300 µg/disc (Bacillus sp. [2]) was 8 mm and the Activity (Panagrellus redivivus) was “inactive”.
`CC(C)=CCC/C(C)=C/C[C@H](O)/C(C)=C/[C@H](O)[C@]12O[C@H]1[C@@H](O)C(CO)=C[C@@H]2O` [ARTHROBOTRISIN C] was tested, and the MIC (Bacillus subtilis [3]) was 5 µg, the zone of inhibition at 50 µg/disc (Bacillus sp. [4]) was 9.1 mm and the zone of inhibition at 50 µg/disc (Staphylococcus aureus) was 7 mm. The zone of inhibition at 25 µg/disc (Bacillus subtilis [5]) was 14.2 mm, the zone of inhibition at 50 µg/disc (Bacillus subtilis [6]) was 19.4 mm and the Activity (Panagrellus redivivus) was “inactive”.
`O=C(N[C@H](CO)[C@H](O)c1ccc([N+](=O)[O-])cc1)C(Cl)Cl` [CHLORAMPHENICOL] gave a zone of inhibition at 10 µg/disc (Bacillus subtilis [7]) of 36.3 mm.
